# Test results: ChEMBL document CHEMBL4152353, “Synthesis of DNA interactive C3-trans-cinnamide linked β-carboline conjugates as potential cytotoxic and DNA topoisomerase I inhibitors” (Bioorg Med Chem, 2018)
# Active and inactive are the calls of the source. No cut-off for these calls is given here.
# How the values were obtained:
# NIH3T3 = assay: Cytotoxicity against mouse NIH/3T3 cells after 48 hrs by MTT assay; format: cell-based; conditions: NIH3T3, 48 h
# HeLa = assay: Cytotoxicity against human HeLa cells after 48 hrs by MTT assay; format: functional, cell-based
# MCF7 = assay: Cytotoxicity against human MCF7 cells after 48 hrs by MTT assay; format: functional, cell-based; conditions: MCF7, 48 h
# A549 = assay: Cytotoxicity against human A549 cells after 48 hrs by MTT assay; format: functional, cell-based; conditions: A549, 48 h
# B16 = assay: Cytotoxicity against mouse B16 cells after 48 hrs by MTT assay; format: functional, cell-based; conditions: B16, 48 h
# Calf thymus DNA = assay: Binding affinity to calf thymus DNA assessed as increase in viscosity at 15 uM by viscometric method; format: nucleic-acid assay; conditions: Bos taurus
SMILES,IC50 (NIH3T3) [µM],IC50 (HeLa) [µM],IC50 (MCF7) [µM],IC50 (A549) [µM],IC50 (B16) [µM],Activity (Calf thymus DNA)
C=CCNC(=O)/C=C/c1cccc(O)c1,> 50,> 50,> 50,> 50,,
O=C(/C=C/c1ccc(Cl)c(Cl)c1)NCc1cc2c([nH]c3ccccc32)c(-c2cccc(F)c2)n1,0.039,0.0249,0.017,0.018,0.0189,
COc1ccc(-c2nc(CNC(=O)/C=C/c3ccc(F)cc3)cc3c2[nH]c2ccccc23)cc1,0.0369,0.0228,0.0182,0.0202,0.0219,
CC[n+]1c(-c2ccccc2)c2cc(N)ccc2c2ccc(N)cc21,,,,,,Active
O=C(/C=C/c1ccc(Cl)cc1)NCc1cc2c([nH]c3ccccc32)c(-c2cccc(F)c2)n1,0.0437,0.0192,0.0183,0.0196,0.0182,
COc1ccc(-c2nc(CNC(=O)/C=C/c3cc(F)cc(F)c3)cc3c2[nH]c2ccccc23)cc1,0.0375,0.0246,0.0172,0.02,0.0239,
COc1ccc(-c2nc(CNC(=O)/C=C/c3ccc(O)c(OC)c3)cc3c2[nH]c2ccccc23)cc1,0.0399,0.0249,0.0172,0.0212,0.0198,
COc1cc(/C=C/C(=O)NCc2cc3c([nH]c4ccccc43)c(-c3cc(OC)c(OC)c(OC)c3)n2)cc(OC)c1OC,0.0389,0.0235,0.0165,0.0213,0.0172,
COc1cc(-c2nc(CNC(=O)/C=C/c3ccc(Cl)cc3)cc3c2[nH]c2ccccc23)cc(OC)c1OC,0.0356,0.0268,0.0175,0.0189,0.0187,
O=C(/C=C/c1cccc(O)c1)NCc1cc2c([nH]c3ccccc32)c(-c2cccc(F)c2)n1,0.0357,0.027,0.0192,0.0234,0.0249,
COc1cccc2c1C(=O)c1c(O)c3c(c(O)c1C2=O)C[C@@](O)(C(=O)CO)C[C@@H]3O[C@H]1C[C@H](N)[C@H](O)[C@H](C)O1 [DOXORUBICIN],1.72,0.78,0.58,,0.67,
COc1cc(-c2nc(CNC(=O)/C=C/c3ccc(Cl)c(Cl)c3)cc3c2[nH]c2ccccc23)cc(OC)c1OC,0.0392,0.0259,0.0175,0.0204,0.0169,
COc1cc(/C=C/C(=O)NCc2cc3c([nH]c4ccccc43)c(-c3cc(OC)c(OC)c(OC)c3)n2)ccc1O,0.0431,0.026,0.0175,0.0183,0.019,
COc1cc(-c2nc(CNC(=O)/C=C/c3ccc(F)cc3)cc3c2[nH]c2ccccc23)cc(OC)c1OC,0.043,0.02,0.0164,0.0187,0.0173,
COc1cc(-c2nc(CNC(=O)/C=C/c3cccc(O)c3)cc3c2[nH]c2ccccc23)cc(OC)c1OC,0.0382,0.0236,0.0168,0.0195,0.0218,
COc1cc(/C=C/C(=O)NCc2cc3c([nH]c4ccccc43)c(-c3cccc(F)c3)n2)ccc1O,0.0369,0.0239,0.0179,0.0224,0.0194,
COc1cc(-c2nc(CNC(=O)/C=C/c3cc(F)cc(F)c3)cc3c2[nH]c2ccccc23)cc(OC)c1OC,0.0363,0.0238,0.0196,0.0216,0.0241,
C/C=C/C(=O)NCc1cc2c([nH]c3ccccc32)c(-c2ccc(OC)cc2)n1,2.67,5.41,10.8,3.36,,
COc1ccc(-c2nc(CNC(=O)/C=C/c3cc(OC)ccc3OC)cc3c2[nH]c2ccccc23)cc1,0.0344,0.0254,0.0165,0.0189,0.0221,
COc1ccc(OC)c(/C=C/C(=O)NCc2cc3c([nH]c4ccccc43)c(-c3cccc(F)c3)n2)c1,0.0396,0.0219,0.0175,0.0222,0.0199,
COc1cc(/C=C/C(=O)NCc2cc3c([nH]c4ccccc43)c(-c3cccc(F)c3)n2)cc(OC)c1OC,0.036,0.023,0.0162,0.0179,0.0198,
COc1ccc(OC)c(/C=C/C(=O)NCc2cc3c([nH]c4ccccc43)c(-c3cc(OC)c(OC)c(OC)c3)n2)c1,0.039,0.0251,0.0172,0.0188,0.0192,
COc1ccc(-c2nc(CNC(=O)/C=C/c3cc(OC)c(OC)c(OC)c3)cc3c2[nH]c2ccccc23)cc1,0.0393,0.0229,0.0139,0.0197,0.0174,
COc1ccc(-c2nc(CNC(=O)CCCl)cc3c2[nH]c2ccccc23)cc1,> 50,> 50,> 50,> 50,,
O=C(/C=C/c1cc(F)cc(F)c1)NCc1cc2c([nH]c3ccccc32)c(-c2cccc(F)c2)n1,0.036,0.0236,0.0165,0.021,0.0182,
O=C(/C=C/c1ccc(F)cc1)NCc1cc2c([nH]c3ccccc32)c(-c2cccc(F)c2)n1,0.0308,0.0243,0.0165,0.0163,0.0168,
COc1ccc(-c2nc(CNC(=O)/C=C/c3ccc(Cl)c(Cl)c3)cc3c2[nH]c2ccccc23)cc1,0.0375,0.0216,0.0164,0.0184,0.023,
